Test results as given in BigSolDB 2.1.

Conditions: 298.15 K

O=[N+]([O-])c1cccc2ccccc12
Conditions | solubility (mole fraction)
in 2-ethylhexanol | 0.0411
in 2-methyl-1-butanol | 0.0297
in 2-methyl-1-pentanol | 0.0367
in 2-pentanol | 0.0324
in 4-methyl-2-pentanol | 0.0311
in MTBE | 0.214
in acetonitrile | 0.328
in benzene | 0.423
in butyronitrile | 0.383
in cyclohexane | 0.025
in cyclooctane | 0.036
in cyclopentanol | 0.0599
in dibutyl ether | 0.0996
in diethyl ether | 0.237
in diisopropyl ether | 0.104
in ethanol | 0.0277
in ethylene glycol | 0.00463
in isobutanol | 0.0173
in isooctane | 0.0163
in isopentanol | 0.032
in isopropanol | 0.0213
in methylcyclohexane | 0.0277
in n-butanol | 0.0348
in n-decane | 0.0274
in n-decanol | 0.0666
in n-heptane | 0.0198
in n-heptanol | 0.0539
in n-hexadecane | 0.0394
in n-hexane | 0.0174
in n-hexanol | 0.0493
in n-nonane | 0.0252
in n-octane | 0.0223
in n-octanol | 0.0593
in n-pentanol | 0.0424
in n-propanol | 0.0295
in propionitrile | 0.37
in sec-butanol | 0.0331
in tert-butanol | 0.0228
in tert-butylcyclohexane | 0.0303
in toluene | 0.421
in undecane | 0.0293
